21 compounds from US12338262B2 (Forward Therapeutics, Inc., priority 2022, dated 2025) can be followed below.

The target in the test is TNF-α (Homo sapiens, UniProt P01375). The test can be described thus: TNF-α Induced HEK Blue Cellular Assay. It is filed as cell-based. Particulars: HEK Blue TNFα reporter cells, TNF-α 100 pg/ml, 24 hrs at 37° C., secreted alkaline phosphatase (QUANTI-Blue, 620 nm). An outline of the steps: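 HEK Blue TNFα reporter cells (10,000/well, DMEM + 10% FBS) treated with compound ([…] to 0.5 nM final) and stimulated with 100 pg/ml TNF-α for 24 h at 37 °C. Secreted alkaline phosphatase read with QUANTI-Blue at 620 nm; IC50 by 4-parameter logistic fit after background correction to stimulated/unstimulated DMSO controls.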
TNF-α, sequence (P01375 77-233 limits assumed): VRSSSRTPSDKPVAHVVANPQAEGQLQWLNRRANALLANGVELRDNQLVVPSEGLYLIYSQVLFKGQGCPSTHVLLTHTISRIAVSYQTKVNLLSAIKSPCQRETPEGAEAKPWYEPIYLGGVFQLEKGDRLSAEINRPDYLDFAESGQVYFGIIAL
Regarding `Cc1nc2cc(F)c(-c3ccc(P(C)(C)=O)nc3)nc2c(N[C@@H](C)c2nc(C#N)ccc2F)c1Cl` [Example 122, 6-[(1S)-1-({3-chloro-6-[6-(dimethylphosphoryl)pyridin-3-yl]-7-fluoro-2-methyl-1,5-naphthyridin-4-yl}amino)ethyl]-5-fluoropyridine-2-carbonitrile], the IC50 is at most 100 nM.

Take `Cc1nc2cc(F)c(-c3ccc(P(C)(C)=O)nc3)nc2c(N[C@H](c2cc(C#N)ccc2F)C(F)F)c1Cl` [Example 35, (R)-3-(1-((3-chloro-6-(6-(dimethylphosphoryl)pyridin-3-yl)-7-fluoro-2-methyl-1,5-naphthyridin-4-yl)amino)-2,2-difluoroethyl)-4-fluorobenzonitrile]: the IC50 is at most 1000 nM.

As for `Cc1nc2cc(F)c(-c3ccc(P(C)(C)=O)nc3)nc2c(N[C@H](C)c2cc(F)cc(F)c2)c1Cl` [Example 85, 3-chloro-N-[(1R)-1-(3,5-difluorophenyl)ethyl]-6-[6-(dimethylphosphoryl)pyridin-3-yl]-7-fluoro-2-methyl-1,5-naphthyridin-4-amine], the IC50 is at most 1000 nM.

`Cc1nc2cc(F)c(-c3cnc(P(C)(C)=O)nc3)nc2c(N[C@H](C)c2cc(C#N)ccc2F)c1Cl` [Example 1, 3-[(1R)-1-({3-chloro-6-[2-(dimethylphosphoryl)pyrimidin-5-yl]-7-fluoro-2-methyl-1,5-naphthyridin-4-yl}amino)ethyl]-4-fluorobenzonitrile] returned an IC50 of at most 100 nM.

With `Cc1nc2cc(F)c(-c3ccc(P(C)(C)=O)nc3)nc2c(N[C@H](C)c2cccc(F)c2F)c1Cl` [Example 50, 3-chloro-N-[(1R)-1-(2,3-difluorophenyl)ethyl]-6-[6-(dimethylphosphoryl)pyridin-3-yl]-7-fluoro-2-methyl-1,5-naphthyridin-4-amine], the IC50 is at most 100 nM.

For `Cc1nc2cc(F)c(-c3ccc(P(C)(C)=O)nc3)nc2c(NC(C)c2ncccc2F)c1Cl` (stereo not drawn) [Example 94, 3-chloro-6-[6-(dimethylphosphoryl)pyridin-3-yl]-7-fluoro-N-[1-(3-fluoropyridin-2-yl)ethyl]-2-methyl-1,5-naphthyridin-4-amine], the IC50 was at most 1000 nM.

On to `Cc1cc(P(C)(C)=O)ncc1-c1nc2c(N[C@H](C)c3cc(C#N)ccc3F)c(Cl)c(C)nc2cc1F` [Example 61, 3-[(1R)-1-({3-chloro-6-[6-(dimethylphosphoryl)-4-methylpyridin-3-yl]-7-fluoro-2-methyl-1,5-naphthyridin-4-yl}amino)ethyl]-4-fluorobenzonitrile], for which the IC50 was at most 1000 nM.

Compound `Cc1nc2cc(F)c(-c3ccc(P(C)(C)=O)nc3)nc2c(N[C@@H](CO)c2ccccc2F)c1Cl` [Example 60, (2R)-2-({3-chloro-6-[6-(dimethylphosphoryl)pyridin-3-yl]-7-fluoro-2-methyl-1,5-naphthyridin-4-yl}amino)-2-(2-fluorophenyl)ethanol] registered an IC50 of 10000 to 30000 nM.

The compound `Cc1nc2cc(F)c(-c3cnc(P(C)(C)=O)nc3)nc2c(N[C@H](C)c2ccccc2F)c1Cl` [Example 7, 3-chloro-6-[2-(dimethylphosphoryl)pyrimidin-5-yl]-7-fluoro-N-[(1R)-1-(2-fluorophenyl)ethyl]-2-methyl-1,5-naphthyridin-4-amine] had an IC50 of at most 1000 nM.

The compound `CC[C@H](Nc1c(Cl)c(C)nc2cc(F)c(-c3cnc(P(C)(C)=O)nc3)nc12)c1cc(C#N)ccc1F` [Example 30, 3-[(1S)-1-({3-chloro-6-[2-(dimethylphosphoryl)pyrimidin-5-yl]-7-fluoro-2-methyl-1,5-naphthyridin-4-yl}amino)propyl]-4-fluorobenzonitrile] gave an IC50 of at most 100 nM.

In turn, `CC[C@@H](Nc1c(Cl)c(C)nc2cc(F)c(-c3ccc(P(C)(C)=O)nc3)nc12)c1cc(C#N)ccc1F` [Example 20, 3-[(1R)-1-({3-chloro-6-[6-(dimethylphosphoryl)pyridin-3-yl]-7-fluoro-2-methyl-1,5-naphthyridin-4-yl}amino)propyl]-4-fluorobenzonitrile] came in with an IC50 of at most 100 nM.

In the case of `Cc1nc2cc(F)c(-c3ccc(P(C)(C)=O)nc3)nc2c(N[C@@H](C)c2ccc(F)c(F)c2F)c1Cl` (single isomer, unassigned) [Example 110], the IC50 was at most 100 nM.

In the case of `CC[C@H](Nc1c(Cl)c(C)nc2cc(F)c(-c3ccc(P(C)(C)=O)nc3)nc12)c1ccccc1F` [Example 23, 3-chloro-6-[6-(dimethylphosphoryl)pyridin-3-yl]-7-fluoro-N-[(1S)-1-(2-fluorophenyl)propyl]-2-methyl-1,5-naphthyridin-4-amine], the IC50 is at most 100 nM.

Consider `Cc1nc2cc(F)c(-c3cnc(P(C)(C)=O)nc3)cc2c(N[C@H](C)c2cccc(F)c2F)c1Cl` [Example 65, 3-chloro-N-[(1R)-1-(2,3-difluorophenyl)ethyl]-6-[2-(dimethylphosphoryl)pyrimidin-5-yl]-7-fluoro-2-methylquinolin-4-amine], for which the concentration for half-maximal inhibition (IC50) is at most 1000 nM.

`Cc1nc2cc(F)c(-c3ccc(P(C)(C)=O)c(F)c3)nc2c(N[C@H](C)c2cccc(Cl)c2F)c1Cl` [Example 118, 3-chloro-N-[(1R)-1-(3-chloro-2-fluorophenyl)ethyl]-6-[4-(dimethylphosphoryl)-3-fluorophenyl]-7-fluoro-2-methyl-1,5-naphthyridin-4-amine]: the IC50 was at most 1000 nM.

As for `CC[C@@H](Nc1c(Cl)c(C)nc2cc(F)c(-c3cnc(P(C)(C)=O)nc3)nc12)c1ccccc1F` [Example 16, 3-chloro-6-[2-(dimethylphosphoryl)pyrimidin-5-yl]-7-fluoro-N-[(1R)-1-(2-fluorophenyl)propyl]-2-methyl-1,5-naphthyridin-4-amine], the IC50 was at most 100 nM.

For the compound `CC[C@@H](Nc1c(F)c(C)nc2cc(F)c(-c3ccc(P(C)(C)=O)nc3)nc12)c1ccccc1F` [Example 77, 6-[6-(dimethylphosphoryl)pyridin-3-yl]-3,7-difluoro-N-[(1R)-1-(2-fluorophenyl)propyl]-2-methyl-1,5-naphthyridin-4-amine], the IC50 was at most 1000 nM.

In turn, `Cc1nc2cc(F)c(-c3ccc(P(C)(C)=O)nc3)nc2c(N[C@@H](C)c2c(F)cccc2F)c1Cl` [Example 54, 3-chloro-N-[(1S)-1-(2,6-difluorophenyl)ethyl]-6-[6-(dimethylphosphoryl)pyridin-3-yl]-7-fluoro-2-methyl-1,5-naphthyridin-4-amine] yielded an IC50 of at most 1000 nM.

Consider `CC[C@H](Nc1c(Cl)c(C)nc2cc(F)c(-c3ccc(P(C)(C)=O)nc3)nc12)c1ccccn1` [Example 76, 3-chloro-6-[6-(dimethylphosphoryl)pyridin-3-yl]-7-fluoro-2-methyl-N-[(1S)-1-(pyridin-2-yl)propyl]-1,5-naphthyridin-4-amine], for which the IC50 was at most 100 nM.

As to `Cc1nc2cc(F)c(-c3ccc(P(C)(C)=O)nc3)nc2c(N[C@@H](C)c2ncccc2F)c1Cl` (single isomer, unassigned) [Example 117], the IC50 fell in the range of 1000 to 10000 nM.

As to `CCC(Nc1c(Cl)c(C)nc2cc(F)c(-c3ccc(P(C)(C)=O)nc3)nc12)c1ccn(C)n1` (stereo not drawn) [Example 149, 3-chloro-6-[6-(dimethylphosphoryl)pyridin-3-yl]-7-fluoro-2-methyl-N-[1-(1-methylpyrazol-3-yl)propyl]-1,5-naphthyridin-4-amine], the IC50 is 10000 to 30000 nM.
